Holding throughout (type): cell-based
Test [1] has as its system Actinomyces israelii W855. Description: Agar dilution susceptibility of anaerobic bacteria (Chart 1). The conditions noted are these: Actinomyces israelii, W855, 24 h, read-out: 24 Hr. MIC, agar dilution, 37° C. (In agar dilution the substance is mixed into plates at graded concentrations.)
The subject of test [2] is Clostridium perfringens 81. Description: microbe, parasite or virus in culture. The conditions noted are these: agar dilution, 37° C.
Test [3] concerns Eubacterium aerofaciens 1235. As to the kind of experiment: Agar dilution susceptibility of anaerobic bacteria (Chart 1). The conditions noted are these: agar dilution, 37° C., Eubacterium aerofaciens 1235.
For test [4], the system named is Peptococcus asaccharolyticus 1302. The description is as above. As to conditions: agar dilution, 37° C., Peptococcus asaccharolyticus 1302.
Another test deals with Peptococcus prevoti 1281. The test is described as above. The conditions noted are these: agar dilution, 37° C.
Test [5] has as its system Peptostreptococcus anaerobius 1428. Described as above. As to conditions: agar dilution, 37° C., Peptostreptococcus anaerobius 1428.
Test [6] has as its system Propionibacterium acnes 79. Described as above. The conditions noted are these: Cutibacterium acnes, 79, 24 h, read-out: 24 Hr. MIC.
Test [7] deals with Bacteroides fragilis sp. fragilis 1936B. The description is as above. The conditions noted are these: agar dilution, 37° C., Bacteroides fragilis sp. fragilis 1936B.
The subject of test [8] is Bacteroides melaninogenicus 1856/28. The description is as above. As to conditions: agar dilution, 37° C., Bacteroides melaninogenicus 1856/28.
The test system of test [9] is Bacteroides melaninogenicus 2736. Described as above. The conditions noted are these: agar dilution, 37° C., Bacteroides melaninogenicus 2736.
Test [10] has as its system Bacteroides vulgatis 1211. Described as above. As to conditions: agar dilution, 37° C., Bacteroides vulgatis 1211.
Test [11] relates to Bacteroides corrodens 1874. The test is described as above. The conditions noted are these: agar dilution, 37° C., Bacteroides corrodens 1874.
Test [12] deals with Fusobacterium symbiosum 1470. Described as above. As to conditions: agar dilution, 37° C., Fusobacterium symbiosum 1470.
In test [13] the test system is Fusobacterium necrophorum 6054A. Described as above. As to conditions: agar dilution, 37° C., Fusobacterium necrophorum 6054A.
Test [14] deals with Bacteroides fragilis sp. fragilis 1877. Described as above. As to conditions: agar dilution, 37° C.; Bacteroides fragilis sp. fragilis 1877; sodium salt.
Test [15] relates to Bacteroides fragilis sp. fragilis 103. Described as above. As to conditions: agar dilution, 37° C.; Bacteroides fragilis sp. fragilis 103; sodium salt.
The subject of test [16] is Bacteroides fragilis sp. fragilis 107. Described as above. The conditions noted are these: agar dilution, 37° C.; Bacteroides fragilis sp. fragilis 107; sodium salt.
In test [17] the test system is Bacteroides fragilis sp. fragilis 108. Described as above. As to conditions: agar dilution, 37° C.; Bacteroides fragilis sp. fragilis 108; sodium salt.
Test [18] deals with Bacteroides fragilis sp. fragilis 110. The test is described as above. The conditions noted are these: agar dilution, 37° C.; Bacteroides fragilis sp. fragilis 110; sodium salt.
Test [19] relates to Bacteroides fragilis sp. fragilis 111. Described as above. The conditions noted are these: agar dilution, 37° C.; Bacteroides fragilis sp. fragilis 111; sodium salt.
Test [20] concerns Bacteroides fragilis sp. fragilis 112. Described as above. The conditions noted are these: agar dilution, 37° C.; Bacteroides fragilis sp. fragilis 112; sodium salt.
Test [21] deals with Bacteroides fragilis sp. fragilis 113. Described as above. The conditions noted are these: agar dilution, 37° C.; Bacteroides fragilis sp. fragilis 113; sodium salt.
Test [22] deals with Bacteroides fragilis sp. fragilis 1451. The description is as above. The conditions noted are these: agar dilution, 37° C.; Bacteroides fragilis sp. fragilis 1451; sodium salt.
The subject of test [23] is Bacteroides fragilis sp. fragilis 1470. The test is described as above. The conditions noted are these: agar dilution, 37° C.; Bacteroides fragilis sp. fragilis 1470; sodium salt.
For test [24], the system named is Bacteroides fragilis sp. fragilis 2. Described as above. The conditions noted are these: agar dilution, 37° C.; Bacteroides fragilis sp. fragilis 2; sodium salt.
For test [25], the system named is Bacteroides fragilis sp. fragilis 9. Described as above. The conditions noted are these: agar dilution, 37° C.; Bacteroides fragilis sp. fragilis 9; sodium salt.
In test [26] the test system is Bacteroides fragilis sp. fragilis 62. The description is as above. The conditions noted are these: agar dilution, 37° C.; Bacteroides fragilis sp. fragilis 62; sodium salt.
Test [27] has as its system Bacteroides fragilis sp. vulgatis 1563. The description is as above. As to conditions: agar dilution, 37° C.; Bacteroides fragilis sp. vulgatis 1563; sodium salt.
The test system of test [28] is Bacteroides fragilis sp. thetaiotaomicron 1438. Described as above. The conditions noted are these: agar dilution, 37° C.; Bacteroides fragilis sp. thetaiotaomicron 1438; sodium salt.
In test [29] the test system is Bacteroides fragilis sp. thetaiotaomicron 1900A. Described as above. As to conditions: agar dilution, 37° C.; Bacteroides fragilis sp. thetaiotaomicron 1900A; sodium salt.
Test [30] deals with Clostridium septicum 1128. The description is as above. The conditions noted are these: 37° C. As for the experimental part:
The susceptibility of anaerobic bacteria, both gram positive and gram negative, to a representative number of the novel compounds of this application was determined using the agar dilution method. The bacteria used were isolated from patients hospitalized at the Indiana Univerisity Medical Center. The isolates were identified in the anaerobe laboratory of the Medical Center by the criteria established by Dowell et al., Laboratory Methods in Anaerobic Bacteriology. Public Health Serv. Publ. NO. 1803 (1968) [Center for Disease Control, Atlanta, Ga.]; and by Smith et al., The Pathogenic Anaerobic Bacteria, pages 96- 136 (1968) [Charles C. Thomas, Publisher, Springfield, Ill.]. All the organisms were maintained in chopped meat glucose medium (Scott Labs) at room temperature.
The method used for the agar dilution tests was based on the studies of Sutter et al., Antimicrob. Ag. Chemother. 3, 188-193 (1973). The strains of anaerobic bacteria were grown in 16×× 120 mm. tubes for 16 to 18 hours in Thioglycolate medium without indicator-- 135C (Becton, Dickinson and Co.), to which was added 5 mcg. of hemin per milliliter prior to autoclaving, plus 1 mg. of sodium bicarbonate and 0.1 mcg. of filter-sterilized menadione per milliliter after autoclaving. The strains were adjusted to the turbidity of the No. 1 McFarland standard in Thioglycolate medium without indicator-- 135C containing an additional 0.13 percent Bacto-agar (Difco). Each strain was then applied to the surface of the petri plate (100 mm× 15 mm.) by means of a replicator.
For the agar dilution studies, two-fold dilutions of the test compounds were prepared in deionized water to which was then added laked sheep blood and filter-sterilized menadione so the concentrations after the agar dilution were 5 percent and 10 mcg./ml. respectively. An equal volume of double strength Brucella agar (Becton, Dickinson and Co.) was mixed with each dilution in a water bath held at 50° C. and then poured onto the petri dishes.
All of the procedures were done inside a plastic glove box, except for the incubation of the growth tubes and the pouring of the plates. After the plates hardened, they were put inside the glove box for a minimum of 2 hours before they were inoculated. Generally, the glove box procedures of Aranki et al., Applied Microbiology 17, 568-576 (1969), were followed, but the following modifications were used. Dry materials were introduced into the glove box by evacuating the lock to 28 inches of mercury and filling once with nitrogen gas, followed by evacuating in the same manner and filling with an 80 percent nitrogen plus 10 percent CO2 plus 10 percent hydrogen gas mixture. Liquid media and agar plates were introduced into the glove box by evacuating the lock to 10 inches of mercury and filling with gas four times. The nitrogen gas was used to fill the lock for the first two cycles of evacuation, with the gas mixture described above used for the final two fillings.
All the plates were incubated at 37° C. in Gas Pak jars (Becton, Dickinson and Co.) containing palladium-coated alumina catalysts (reactivated after each use). The results of the agar dilution tests were read after about 24 hours of incubation. The minimum inhibitory concentration (MIC) was recorded as the lowest concentration of test compound at which there was no growth.
The test compounds are identified by the number of the example describing their preparation. The antibiotics clindamycin (C), and erythromycin (E) were also run simultaneously with the novel compounds of this application,for comparison purposes, and the results are included in Chart 1 below.

For test [31], the system named is Peptostreptococcus intermedius 1264. Described as above. The conditions noted are these: agar dilution, 37° C., Peptostreptococcus intermedius 1264.

Structures can show the parent of a compound that is named as a salt. Bounds are passed on as bounds.

On to `Cn1nc(-c2ncc([N+](=O)[O-])n2C)c(C#N)c1NC(=O)C(=O)NN` [Example 8, 5-[4-Cyano-1-methyl-3-(1-methyl-5-nitroimidazol-2-yl)pyrazol-5-yl]semioxamazide, sodium salt], for which the MIC in test [1] and in [6] was greater than 128 µg/mL throughout. Besides, the “24 Hr. MIC” value in test [2] (sodium salt) came out at 2 µg/mL; in test [3] (sodium salt) it was 4 µg/mL; in test [4] (sodium salt), 1.0 µg/mL; in the test with Peptococcus prevoti 1281 (sodium salt), 32 µg/mL; in [5] (sodium salt) it was 0.5 µg/mL; in [7] (sodium salt) it was 1.0 µg/mL. In addition, the “24 Hr. MIC” value in [8] (sodium salt) is 16 µg/mL; in [9] (sodium salt), 0.5 µg/mL; in test [10] (sodium salt) it was 1.0 µg/mL; in [11] (sodium salt) it was 1.0 µg/mL; in [12] (sodium salt), 0.5 µg/mL; in test [13] (sodium salt), 0.5 µg/mL.

For the compound `Cn1nc(-c2ncc([N+](=O)[O-])n2C)c(C#N)c1NC(=O)C(=O)c1ccccc1` [Example 11, N-[4-Cyano-1-methyl-3-(1-methyl-5-nitroimidazol-2-yl)pyrazol-5-yl]-2-phenylglyoxylamide, sodium salt], the “24 Hr. MIC” value in test [14], in test [15], in test [16], in [17], in [18] and in test [19] was 0.06 µg/mL in each case. Moreover, the “24 Hr. MIC” value came out at 0.06 µg/mL in test [20]; 0.125 µg/mL in test [21]; 0.125 µg/mL in test [22]; 0.06 µg/mL in test [23]; 0.06 µg/mL in test [24]; 0.06 µg/mL in test [25]. Besides, the “24 Hr. MIC” value in [26] stood at 0.06 µg/mL; in test [27], 0.25 µg/mL; in test [28], 0.125 µg/mL; in [29], 0.125 µg/mL; in test [2] (sodium salt), 0.5 µg/mL; in test [30] (sodium salt), 0.25 µg/mL. The “24 Hr. MIC” value in [3] (sodium salt) worked out at 0.5 µg/mL; with Peptococcus prevoti 1281 (sodium salt) it was 2 µg/mL; in test [5] (sodium salt) it was 0.25 µg/mL; in test [31] (sodium salt), 32 µg/mL; in [7] (sodium salt), 0.06 µg/mL; in test [8] (sodium salt), 16 µg/mL. Further, the “24 Hr. MIC” value was no more than 0.03 µg/mL in test [9] (sodium salt), 1.0 µg/mL in test [10] (sodium salt), 0.25 µg/mL in [11] (sodium salt) and 0.25 µg/mL in [13] (sodium salt).

On to `CCOC(=O)C(=O)Nc1c(C#N)c(-c2ncc([N+](=O)[O-])n2C)nn1C` [Example 4, N-[4-Cyano-1-methyl-3-(1-methyl-5-nitroimidazol-2-yl)pyrazol-5-yl]oxamic acid, ethyl ester, ammonium salt], for which the MIC in [1] and in test [6] was greater than 128 µg/mL throughout. Moreover, the “24 Hr. MIC” value in [2] (ammonium salt) is no more than 0.5 µg/mL; in [30] (ammonium salt) it was 16 µg/mL; in test [3] (ammonium salt) it was no more than 0.5 µg/mL; in test [4] (ammonium salt) it was no more than 0.5 µg/mL; in the test on Peptococcus prevoti 1281 (ammonium salt) it was 32 µg/mL; in [5] (ammonium salt), no more than 0.5 µg/mL. Also, the “24 Hr. MIC” value in test [31] (ammonium salt) is no more than 0.5 µg/mL; in test [7] (ammonium salt), no more than 0.5 µg/mL; in test [8] (ammonium salt) it was 1.0 µg/mL; in test [9] (ammonium salt), no more than 0.5 µg/mL; in test [10] (ammonium salt), no more than 0.5 µg/mL; in [11] (ammonium salt) it was no more than 0.5 µg/mL. Also, the “24 Hr. MIC” value in [12] (ammonium salt) and in test [13] (ammonium salt) was no more than 0.5 µg/mL in each case.

Broadly, the MIC is the smallest concentration in the dilution series that meets the test's criterion for growth inhibition.

These data come from patent publication US4029671A, “3-[(5-nitro-2-imidazolyl)pyrazol-5-yl]oxamic acid derivatives” (priority 1976, dated 1977).
